{
  "source": "patent US4175125A",
  "about": "“Method for treating methicillin resistant staphylococcus aureus” (Eli Lilly and Company, priority 1978, dated 1979)",
  "key": {"[1]": {"system": "methicillin-resistant Staphylococcus aureus", "assay": "Gradient plate test (MIC) against methicillin-resistant Staphylococcus aureus", "format": "cell-based", "conditions": "Staphylococcus aureus, read-out: minimum inhibitory concentration (MIC)", "method": "The method used is essentially that described by Bryson and Szybalski in 1952 (Science 116:45-46). The inoculum treatment method used for penicillin resistant Staphylococci was reported by Godzeski et al in Antimicrobial Agents and Chemotherapy, May, 1969, pp. 547-554.\nA standard Falcon square plastic petri dish is used. A layer of agar (10 ml.) is poured into one of the square dishes, the dish tipped 5 mm. off the horizontal, and the agar layer allowed to harden in this position. This bottom layer of agar contains the antibiotic, the serum, and/or other material to be tested. The medium is Difco Penassay Agar containing 2 percent agar. We routinely used 4 ml. of human or horse serum for \"serum-inactivation\" testing. […] Therefore, serum is routinely added only to the bottom layer.\nAfter the bottom, slanted layer of agar medium has hardened, the plate is placed flat and another 10 ml. of medium added and allowed to harden.\nThe inoculum of resistant Staphylococci, as described, is prepared by diluting the water suspension 1/50 in 0.25 percent agar in sterile water or saline. For Gram negative organisms, an overnight broth culture is diluted 1/50 in the 0.25 percent agar-water. This dilution is thoroughly shaken to evenly suspend the bacteria. To streak the plate, we use a 1 ml. pipet containing an aliquot of the final […] agar dilution. After a little practice, a smooth even stroke of inoculum can be laid down very rapidly. The trick is in the smoothness of the streak--it must be accomplished uniformly and quickly.\nAfter 24 hours incubation at 35°-37° C. the plates are read by simply measuring the length of bacterial growth as a percentage of the entire streak distance which is then converted to the percent of antibiotic concentration in the plate.\nAverage values of duplicate measurements are calculated and the M.I.C.'s reported are average of 2 streaks on the plate and from 2 to 3 duplicate plates. Eight streaks can be easily placed on each plate. If sharp end points are not obtained, the middle concentration between the beginning of inhibition of the streak to the end of growth is measured. The concentration of the antibiotic under examination is varied from plate to plate in a series as follows: […]\nThis method of screening penicillins and cephalosporins is quite satisfactory. Control plates containing penicillin and staphcillin or prostaphlin, or other control antibiotic, are used daily for the resistant staphylococcal activity screen. The gradient plate method has shown differences between antibiotics that were not apparent by any other methods of screening. […] We believe that the gradient plate screen is more sensitive to small differences between related antibiotics than other methods and pictures of the plates can provide a permanent record. The method also lends itself readily to modification of specific purposes--e.g., cross gradients.\nThe compounds listed below are examples of compounds useful in the method of this invention. After the compound name there is given in parentheses, where tested, the minimum inhibitory concentrations (MIC) in micrograms per milliliter (μg/ml) for the compound in the above described gradient plate procedure test against methicillin-resistant Staphylococcus aureus, (in the absence of blood serum/in the presence of 20 percent blood serum).\nand pharmaceutically acceptable salts thereof. The abbreviation \"s.z.\" means skip zones."}, "[2]": {"system": "Streptococcus pyogenes, strain C203", "assay": "Streptococcus pyogenes infection in mice, median effective dose (Example 12)", "format": "in vivo", "method": "The compound 7-[2\"-(3\"-chloro-4\"-fluorophenyltio)acetamido]cephalosporanic acid, prepared as described in Example 8, was tested for antibiotic effectiveness against Streptococcus pyogenes, strain C203 infections in mice, and is compared with the effectiveness of cephaloridine in the same test. Experience has shown with other compounds, some of which are now commercial antibiotics, that a compound effective against Streptococcus pyrogenes, strain C203 in this test will be effective against Staphylococcus aureus strains in clinical use. This is intended as further evidence that the compounds of the method of this invention should be effective antibiotics in clinical situations.\nIn this test, a standard in vivo test method described by Wick, W. E., F. Streightoff, and D. H. Holmes. 1961, in J. Bacteriol., 81: 233-235 was used. The oral and subcutaneous median effective doses (ED50) necessary to cure 50 percent of the mice were calculated according to the method of Reed and Muench (Reed, L. J., and H. Meunch. 1938. Am. J. Hyg. 27: 493-497) The results were as follows: […]"}, "[3]": {"system": "Staphylococcus aureus cultures", "assay": "Agar dilution MIC, Example 13 compound vs methicillin resistant Staphylococcus aureus", "format": "cell-based", "conditions": "read-out: MIC", "source_text": "The table which follows gives the minimum inhibitory concentration (MIC) in micrograms of compound per milliliter of culture (μg/ml), in comparison with similar MIC values for the known antibiotics methicillin, cephalothin and cephaloridine against the same strains of bacteria."}, "[4]": {"conditions": "in the presence of 20 percent blood serum"}},
  "note": "Read-outs that look alike come from different tables or passages of the source.",
  "data": [
    {"smiles": "CC(=O)OCC1=C(C(=O)O)N2C(=O)C(NC(=O)CSc3cc(Cl)cc(Cl)c3)C2SC1", "note": "(stereo not drawn) [Example 3, 7-(3,5-Dichlorophenylthioacetamido)-cephalosporanic acid]", "values": [
      {"measurement": "MIC", "setting": "[1]; in the absence of blood serum", "result": 2, "unit": "µg/mL"},
      {"measurement": "MIC", "setting": "[1]; [4]", "result": 8.7, "unit": "µg/mL"}
    ]},
    {"smiles": "CC(=O)OCC1=C(C(=O)O)N2C(=O)C(NC(=O)CSc3cc(Cl)ccc3Cl)C2SC1", "note": "(stereo not drawn) [Example 2, 7-(2,5-Dichlorophenylthioacetamido)-cephalosporanic acid]", "values": [
      {"measurement": "MIC", "setting": "[1]; in the absence of blood serum", "result": 0.8, "unit": "µg/mL"},
      {"measurement": "MIC", "setting": "[1]; [4]", "result": 1, "unit": "µg/mL"}
    ]},
    {"smiles": "O=C(Cc1cccs1)N[C@@H]1C(=O)N2C(C(=O)[O-])=C(C[n+]3ccccc3)CS[C@H]12", "note": "[Cephaloridine, cephaloridine, reference compound]", "values": [
      {"measurement": "ED50", "setting": "[2]; C203, po", "result": 0.323, "unit": "mg/kg"},
      {"measurement": "ED50", "setting": "[2]; C203, sc", "result": 0.1, "unit": "mg/kg"},
      {"measurement": "MIC", "setting": "[3]; culture 3055 (control), Trypticase Soy Agar with 4.5% NaCl added (5% NaCl)", "result": 0.13, "unit": "µg/mL"},
      {"measurement": "MIC", "setting": "[3]; culture 3055 (control), Trypticase Soy Agar, 0.5% NaCl", "result": 0.03, "unit": "µg/mL"},
      {"measurement": "MIC", "setting": "[3]; culture 3130, Trypticase Soy Agar with 4.5% NaCl added (5% NaCl)", "result": 1, "unit": "µg/mL"},
      {"measurement": "MIC", "setting": "[3]; culture 3130, Trypticase Soy Agar, 0.5% NaCl", "result": 0.5, "unit": "µg/mL"},
      {"measurement": "MIC", "setting": "[3]; culture 3131, Trypticase Soy Agar with 4.5% NaCl added (5% NaCl)", "result": 1, "unit": "µg/mL"},
      {"measurement": "MIC", "setting": "[3]; culture 3131, Trypticase Soy Agar, 0.5% NaCl", "result": 0.5, "unit": "µg/mL"},
      {"measurement": "MIC", "setting": "[3]; culture 3132, Trypticase Soy Agar with 4.5% NaCl added (5% NaCl)", "result": 0.5, "unit": "µg/mL"},
      {"measurement": "MIC", "setting": "[3]; culture 3132, Trypticase Soy Agar, 0.5% NaCl", "result": 0.25, "unit": "µg/mL"},
      {"measurement": "MIC", "setting": "[3]; culture 3133, Trypticase Soy Agar with 4.5% NaCl added (5% NaCl)", "result": 0.25, "unit": "µg/mL"},
      {"measurement": "MIC", "setting": "[3]; culture 3133, Trypticase Soy Agar, 0.5% NaCl", "result": 0.13, "unit": "µg/mL"},
      {"measurement": "MIC", "setting": "[3]; culture 3134, Trypticase Soy Agar with 4.5% NaCl added (5% NaCl)", "result": 1, "unit": "µg/mL"},
      {"measurement": "MIC", "setting": "[3]; culture 3134, Trypticase Soy Agar, 0.5% NaCl", "result": 1, "unit": "µg/mL"},
      {"measurement": "MIC", "setting": "[3]; culture 3135, Trypticase Soy Agar with 4.5% NaCl added (5% NaCl)", "result": 4, "unit": "µg/mL"},
      {"measurement": "MIC", "setting": "[3]; culture 3135, Trypticase Soy Agar, 0.5% NaCl", "result": 0.5, "unit": "µg/mL"},
      {"measurement": "MIC", "setting": "[3]; culture 3136, Trypticase Soy Agar with 4.5% NaCl added (5% NaCl)", "result": 4, "unit": "µg/mL"},
      {"measurement": "MIC", "setting": "[3]; culture 3136, Trypticase Soy Agar, 0.5% NaCl", "result": 0.13, "unit": "µg/mL"},
      {"measurement": "MIC", "setting": "[3]; culture 3137, Trypticase Soy Agar with 4.5% NaCl added (5% NaCl)", "result": 4, "unit": "µg/mL"},
      {"measurement": "MIC", "setting": "[3]; culture 3137, Trypticase Soy Agar, 0.5% NaCl", "result": 4, "unit": "µg/mL"},
      {"measurement": "MIC", "setting": "[3]; culture 3138, Trypticase Soy Agar with 4.5% NaCl added (5% NaCl)", "result": 4, "unit": "µg/mL"},
      {"measurement": "MIC", "setting": "[3]; culture 3138, Trypticase Soy Agar, 0.5% NaCl", "result": 1, "unit": "µg/mL"},
      {"measurement": "MIC", "setting": "[3]; culture 3139, Trypticase Soy Agar with 4.5% NaCl added (5% NaCl)", "result": 0.13, "unit": "µg/mL"},
      {"measurement": "MIC", "setting": "[3]; culture 3139, Trypticase Soy Agar, 0.5% NaCl", "result": 0.5, "unit": "µg/mL"},
      {"measurement": "MIC", "setting": "[3]; culture H232 (control), Trypticase Soy Agar with 4.5% NaCl added (5% NaCl)", "result": 0.13, "unit": "µg/mL"},
      {"measurement": "MIC", "setting": "[3]; culture H232 (control), Trypticase Soy Agar, 0.5% NaCl", "result": 0.06, "unit": "µg/mL"},
      {"measurement": "MIC", "setting": "[3]; culture Havarmak 1136501, Trypticase Soy Agar with 4.5% NaCl added (5% NaCl)", "result": 8, "unit": "µg/mL"},
      {"measurement": "MIC", "setting": "[3]; culture Havarmak 1136501, Trypticase Soy Agar, 0.5% NaCl", "result": 1, "unit": "µg/mL"},
      {"measurement": "MIC", "setting": "[3]; culture S 61, Trypticase Soy Agar with 4.5% NaCl added (5% NaCl)", "result": 1, "unit": "µg/mL"},
      {"measurement": "MIC", "setting": "[3]; culture S 61, Trypticase Soy Agar, 0.5% NaCl", "result": 1, "unit": "µg/mL"},
      {"measurement": "MIC", "setting": "[3]; culture Seattle 966, Trypticase Soy Agar with 4.5% NaCl added (5% NaCl)", "result": 0.13, "unit": "µg/mL"},
      {"measurement": "MIC", "setting": "[3]; culture Seattle 966, Trypticase Soy Agar, 0.5% NaCl", "result": 0.5, "unit": "µg/mL"}
    ]}
  ]
}
